Experimental data reported in patent US20040076581A1, “Use of neuropeptide y1 receptor binding compounds in the treatment and diagnosis of cancer” (priority 2000, published 2004).
“Also recorded” adds a separate entry of the source.

How the values were obtained:
[1] = molecular target: T1, Y1 in human breast carcinoma (Homo sapiens, UniProt P25929); test: NPY receptor autoradiography, displacement of 125I-PYY in breast carcinoma sections; type: binding; settings: FIG. 2; increasing concentrations; Y1-expressing breast tumor
T1 construct: Twenty-μm thick cryostat sections of the tissue samples were processed for NPY receptor autoradiography; from tissue; host or cells: human breast carcinoma cryostat sections
T1 sequence (P25929 1-384): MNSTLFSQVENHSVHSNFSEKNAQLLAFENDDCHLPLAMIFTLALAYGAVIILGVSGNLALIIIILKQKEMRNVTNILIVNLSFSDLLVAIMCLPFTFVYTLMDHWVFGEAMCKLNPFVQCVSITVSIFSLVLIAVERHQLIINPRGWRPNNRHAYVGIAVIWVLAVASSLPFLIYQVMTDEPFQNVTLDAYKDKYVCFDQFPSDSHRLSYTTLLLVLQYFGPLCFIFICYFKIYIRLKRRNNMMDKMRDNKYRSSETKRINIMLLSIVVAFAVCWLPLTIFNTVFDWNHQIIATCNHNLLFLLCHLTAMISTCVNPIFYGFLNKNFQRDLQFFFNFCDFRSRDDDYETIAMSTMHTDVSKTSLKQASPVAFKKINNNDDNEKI
Method: For autoradiography, tissue sections were mounted on precleaned microscope slides and stored at −20° C. for at least 3 days to improve adhesion of the tissue to the slide.
(§1) On completion of the incubation, the slides were washed four times for 5 min each in ice-cold preincubation solution, pH 7.4. They were rinsed twice in ice-cold distilled water, and then dried under a stream of cold air at 4° C., apposed to ^3H-Hyperfilms and exposed for 7 days in x-ray cassettes.
(§2) Tissue standards for iodinated compounds (Amersham) were used for this purpose.

[2] = molecular target: T2, Y2 receptors in normal breast (Homo sapiens, UniProt P49146); test: NPY receptor autoradiography, displacement of 125I-PYY in adjacent normal breast sections; type: binding; settings: FIG. 1; surrounding normal breast expressing predominantly Y2
T2 construct: Twenty-μm thick cryostat sections of the tissue samples were processed for NPY receptor autoradiography; from tissue; host or cells: human normal breast tissue adjacent to carcinoma, cryostat sections
T2 sequence (P49146 1-381): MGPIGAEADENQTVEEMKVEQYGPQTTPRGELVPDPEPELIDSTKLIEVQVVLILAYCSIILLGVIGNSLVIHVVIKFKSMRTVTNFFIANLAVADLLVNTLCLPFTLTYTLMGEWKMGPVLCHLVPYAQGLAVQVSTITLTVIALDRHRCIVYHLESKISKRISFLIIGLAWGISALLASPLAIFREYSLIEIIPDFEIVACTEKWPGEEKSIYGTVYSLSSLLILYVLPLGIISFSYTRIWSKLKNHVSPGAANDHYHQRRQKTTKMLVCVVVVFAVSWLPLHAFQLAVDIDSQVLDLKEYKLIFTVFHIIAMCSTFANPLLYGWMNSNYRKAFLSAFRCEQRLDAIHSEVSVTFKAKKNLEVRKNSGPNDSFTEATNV
Method: For autoradiography, tissue sections were mounted on precleaned microscope slides and stored at −20° C. for at least 3 days to improve adhesion of the tissue to the slide. […] The slides were incubated at room temperature with the radioligand for 120 min.
In selected cases, displacements with a single concentration (25 nM) of each of the above mentioned peptides were performed.
as §1, §2

[3] = molecular target: T3, NPY receptors in breast carcinoma (Homo sapiens, UniProt P25929); test: NPY receptor autoradiography, total binding of radioligands to breast carcinoma
T3 construct: Twenty-μm thick cryostat sections of the tissue samples were processed for NPY receptor autoradiography; from tissue; host or cells: human breast carcinoma cryostat sections
T3 sequence (P25929 1-384): T1 sequence (P25929 1-384)
Method: (§3) Twenty-μm thick cryostat sections of the tissue samples were processed for NPY receptor autoradiography as described in detail previously for other peptide receptors (Reubi, J. C. et al. Cancer Res. 50, 5969-5977 (1990)). One radioligand used was ^125I-PYY (2'000 Ci/mmol; […], Switzerland), known to specifically label NPY receptors. For autoradiography, tissue sections were mounted on precleaned microscope slides and stored at -20° C. for at least 3 days to improve adhesion of the tissue to the slide. Sections were then processed according to Dumont et al. (J. Neurosci. 13, 73-86 (1993)). They were first preincubated in 119 mM NaCl, 3.2 mM KCl, 1.19 mM KH2PO4, 1.19 mm MgSO4, 25 mM NaHCO3, 2.53 mM CaCl2×2H2O and 10 mM D-glucose, pH 7.4 (preincubation solution), for 60 min at room temperature. The slides were then incubated in a solution containing the same medium as the preincubation solution in which the following compounds were added: 0.1% bovine serum albumin, 0.05% bacitracin, pH 7.4, and the radioligand, at approximate concentration of 22 pM ^125I-PYY. The slides were incubated at room temperature with the radioligand for 120 min. On completion of the incubation, the slides were washed four times for 5 min each in ice-cold preincubation solution, pH 7.4. They were rinsed twice in ice-cold distilled water, and then dried under a stream of cold air at 4° C., apposed to ^3H-Hyperfilms and exposed for 7 days in x-ray cassettes. […] Int 21, 45-67 (1992); […] Neurosci. 76, 215-224 (1997)). Identical experimental conditions as mentioned for ^125I-PYY were used. The autoradiograms were quantified using a computer-assisted image processing system, as described previously (Reubi et al. (1990), supra; […] & Reubi Can. Res. 59,1152-1159 (1999)). Tissue standards for iodinated compounds (Amersham) were used for this purpose. A tissue was defined as receptor-positive when the optical density measured in the total binding section was at least twice that of the nonspecific binding section (in the presence of 10^-7 mol/L PYY).

[4] = tested on: NPY receptors in normal breast; test: NPY receptor autoradiography, total binding of radioligands to adjacent normal breast; design: species or system human; settings: FIG. 1
Method: as §3

Row | Compound | displacement of 125I-PYY, competition curves [1] | labeling of tumor by radioligand (total binding) ([3]; FIG. 1) | labeling of breast by radioligand (total binding) [4] | further results
1 | C[C@H](N)C(=O)NCC(=O)N[C@H]1CSSC[C@@H](C(=O)O)NC(=O)[C@H](CO)NC(=O)[C@H]([C@@H](C)O)NC(=O)[C@H](Cc2ccccc2)NC(=O)[C@H]([C@@H](C)O)NC(=O)[C@H](CCCCN)NC(=O)[C@H](Cc2c[nH]c3ccccc23)NC(=O)[C@H](Cc2ccccc2)NC(=O)[C@H](Cc2ccccc2)NC(=O)[C@H](CC(N)=O)NC(=O)[C@H](CCCCN)NC1=O [Somatostatin] | inactive | – | – | –
2 | [Leu^31, Pro^34]-NPY | – | – | – | affinity in surrounding breast (rank order of potency) [2]: low affinity
3 | ^125I-[Leu^31, Pro^34]-PYY | – | strongly labeled | not or only very weakly visible | labeling of tumor by radioligand (total binding) ([3]; FIG. 1, Pro^34]-PYY): labeled
4 | PYY(13-36) | not | – | – | –
5 | ^125I-PYY(3-36) | – | not seen | labeled | –
6 | [Leu^31, Pro^34]-PYY | completely displace the radiotracer with high affinity; also recorded: high affinity displacement | – | – | affinity in surrounding breast (rank order of potency) [2]: low affinity
7 | PYY: member of the NPY family of 36 amino acid long peptides [peptide YY] | high affinity displacement | – | – | –
8 | ^125I-PYY | – | strong labeling | strong labeling | –
